The series in a line: Hygroscopicity analysis (DVS) of the valsartan crystal forms. The conditions noted are these: new crystal forms; result in words only; DVS comparison (Figure 11) not in text. In kind it is physicochemical.

As for `CCCCC(=O)N(Cc1ccc(-c2ccccc2-c2nnn[nH]2)cc1)[C@H](C(=O)O)C(C)C` [晶型E, (S)-N-(1-戊酰基)-N-[[2’-(1H-四唑-5-基)[1,1’-联苯]-4-基]甲基]-L-缬氨酸], the hygroscopicity result is on record as “吸湿性小”.

These data come from patent CN103739564A, “缬沙坦的多晶型及其制备方法” (Shanghai Institute of Materia Medica of CAS, priority 2012, dated 2013).
